Measured values published in US8012967B2, “Minor groove binders” (University of Strathclyde, priority 2006, dated 2011).
Read-outs that look alike come from different tables or passages of the source.

Columns and labels:
[1] = tested on: Streptococcus faecalis (NCTC 775); test: MIC, Streptococcus faecalis; format: cell-based; conditions: Enterococcus faecalis, NCTC775, read-out: Minimum inhibitory concentrations (MICs), St. faecalis
Outline: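 Broth microdilution with doubling dilutions of compound in Mueller-Hinton Broth, incubated at 37° C. MIC read from the colour pattern in the wells. Sterility and growth controls included.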

[2] = tested on: Aspergillus niger (IMI 1745); test: MIC, Aspergillus niger; format: cell-based; conditions: Aspergillus niger, read-out: Minimum inhibitory concentrations (MICs), A. niger
[3] = tested on: S. aureus LS-1; test: S. aureus infection model in mice, minimal effective dose; format: in vivo; design: Development of swollen joints following infection: unit not given here; conditions: for Development of swollen joints following infection: mice
Protocol: In relation to the methods described in J. Med. Microbiol. 46, 208-213 (1997), compounds may be evaluated in vivo using a model S. Aureus strain LS-1 which, when injected intravenously into mice, consistently causes transient bacteraemia followed by joint localization in 3-4 days. Normal control mice show inflammation of 50-60% of their joints within 3-4 days. The severity of joint sepsis was measured using calipers to determine the diameter of the affected joints. In general, five groups of mice normally having a mean weight of between 18-28 g (5 mice per group) are used for each compound tested, wherein each group is infected with S. Aureus and then provided with a certain dose of the compound to be tested (with one group acting a control).
Determination of minimal effective dose of title compound of Example 2 in S. aureus infection model.
Mice were infected with S. aureus LS-1 (50 million cfu by iv injection) and treated with graded doses of the compound of Example 2 (iv injection within 30 minutes). Each group contained 5 mice and comprised the following.
Group 1: S. aureus LS-1 only
Group 2: S. aureus LS-1 plus 60 mg/kg of the compound of Example 2
Group 3: S. aureus LS-1 plus 40 mg/kg of the compound of Example 2
Group 4: S. aureus LS-1 plus 20 mg/kg of the compound of Example 2
Group 5: S. aureus LS-1 plus 10 mg/kg of the compound of Example 2
Mice were assessed daily for weight loss, development of swollen joints and morbidity/mortality.

[4] = value in parentheses, na = not active

## Cn1cc(NC(=O)c2cc(NC(=O)c3ccc(/C=C/c4cnc5ccccc5c4)cc3)cn2C)cc1C(=O)NCCN1CCOCC1 [Example 2, 1-Methyl-4-({[1-methyl-4-({4-[(E)-2-(3-quinolinyl)ethenyl]benzoyl}amino)-1H-pyrrol-2-yl]carbonyl}amino)-N-[2-(4-morpholinyl)ethyl]-1H-pyrrole-2-carboxamide]
[1]; [4]
  MIC: 25 µg/mL
[1]; value outside parentheses
  MIC: 33.5 µM
[2]; [4]
  MIC: 50 µg/mL
[2]; value outside parentheses
  MIC: 67 µM
[3]; Group 2, 60 mg/kg iv, Day 2
  Weight loss of mice after infection: Mean mouse weight (g) after: 27.1 g
[3]; Group 2, 60 mg/kg iv, Day 5
  Weight loss of mice after infection: Mean mouse weight (g) after: 26.3 g
[3]; Group 2, 60 mg/kg iv, Day 7
  Weight loss of mice after infection: Mean mouse weight (g) after: 26.1 g
[3]; Group 2, 60 mg/kg iv, day 2 post infection
  Mortality rate of mice following infection: 0/5
[3]; Group 2, 60 mg/kg iv, day 3 post infection
  Mortality rate of mice following infection: 0/5
[3]; Group 2, 60 mg/kg iv, day 4 post infection
  Mortality rate of mice following infection: 1/5
[3]; Group 2, 60 mg/kg iv, day 5 post infection
  Mortality rate of mice following infection: 1/5
[3]; Group 2, 60 mg/kg iv, day 6 post infection
  Mortality rate of mice following infection: 1/5
[3]; Group 2, 60 mg/kg iv, day 7 post infection
  Mortality rate of mice following infection: 1/5
[3]; Group 3, 40 mg/kg iv, Day 2
  Weight loss of mice after infection: Mean mouse weight (g) after: 27.0 g
[3]; Group 3, 40 mg/kg iv, Day 5
  Weight loss of mice after infection: Mean mouse weight (g) after: 26.4 g
[3]; Group 3, 40 mg/kg iv, Day 7
  Weight loss of mice after infection: Mean mouse weight (g) after: 26.0 g
[3]; Group 3, 40 mg/kg iv, day 2 post infection
  Mortality rate of mice following infection: 0/5
[3]; Group 3, 40 mg/kg iv, day 3 post infection
  Mortality rate of mice following infection: 0/5
[3]; Group 3, 40 mg/kg iv, day 4 post infection
  Mortality rate of mice following infection: 0/5
[3]; Group 3, 40 mg/kg iv, day 5 post infection
  Mortality rate of mice following infection: 0/5
[3]; Group 3, 40 mg/kg iv, day 6 post infection
  Mortality rate of mice following infection: 0/5
[3]; Group 3, 40 mg/kg iv, day 7 post infection
  Mortality rate of mice following infection: 0/5
[3]; Group 4, 20 mg/kg iv, Day 2
  Weight loss of mice after infection: Mean mouse weight (g) after: 27.6 g
[3]; Group 4, 20 mg/kg iv, Day 5
  Weight loss of mice after infection: Mean mouse weight (g) after: 25.4 g
[3]; Group 4, 20 mg/kg iv, Day 7
  Weight loss of mice after infection: Mean mouse weight (g) after: 25.1 g
[3]; Group 4, 20 mg/kg iv, day 2 post infection
  Mortality rate of mice following infection: 0/5
[3]; Group 4, 20 mg/kg iv, day 3 post infection
  Mortality rate of mice following infection: 0/5
[3]; Group 4, 20 mg/kg iv, day 4 post infection
  Mortality rate of mice following infection: 0/5
[3]; Group 4, 20 mg/kg iv, day 5 post infection
  Mortality rate of mice following infection: 1/5
[3]; Group 4, 20 mg/kg iv, day 6 post infection
  Mortality rate of mice following infection: 2/5
[3]; Group 4, 20 mg/kg iv, day 7 post infection
  Mortality rate of mice following infection: 3/5
[3]; Group 5, 10 mg/kg iv, Day 2
  Weight loss of mice after infection: Mean mouse weight (g) after: 26.9 g
[3]; Group 5, 10 mg/kg iv, Day 5
  Weight loss of mice after infection: Mean mouse weight (g) after: 23.0 g
[3]; Group 5, 10 mg/kg iv, Day 7
  Weight loss of mice after infection: Mean mouse weight (g) after: 22.6 g
[3]; Group 5, 10 mg/kg iv, day 2 post infection
  Mortality rate of mice following infection: 0/5
[3]; Group 5, 10 mg/kg iv, day 3 post infection
  Mortality rate of mice following infection: 0/5
[3]; Group 5, 10 mg/kg iv, day 4 post infection
  Mortality rate of mice following infection: 0/5
[3]; Group 5, 10 mg/kg iv, day 5 post infection
  Mortality rate of mice following infection: 0/5
[3]; Group 5, 10 mg/kg iv, day 6 post infection
  Mortality rate of mice following infection: 1/5
[3]; Group 5, 10 mg/kg iv, day 7 post infection
  Mortality rate of mice following infection: 2/5
[3]; count n/N, Group 2, 60 mg/kg iv, day 2 post infection
  Development of swollen joints following infection: 0/20
[3]; count n/N, Group 2, 60 mg/kg iv, day 3 post infection
  Development of swollen joints following infection: 0/20
[3]; count n/N, Group 2, 60 mg/kg iv, day 4 post infection
  Development of swollen joints following infection: 0/16
[3]; count n/N, Group 2, 60 mg/kg iv, day 5 post infection
  Development of swollen joints following infection: 0/16
[3]; count n/N, Group 2, 60 mg/kg iv, day 6 post infection
  Development of swollen joints following infection: 0/16
[3]; count n/N, Group 2, 60 mg/kg iv, day 7 post infection
  Development of swollen joints following infection: 0/16
[3]; count n/N, Group 3, 40 mg/kg iv, day 2 post infection
  Development of swollen joints following infection: 0/20
[3]; count n/N, Group 3, 40 mg/kg iv, day 3 post infection
  Development of swollen joints following infection: 0/20
[3]; count n/N, Group 3, 40 mg/kg iv, day 4 post infection
  Development of swollen joints following infection: 2/20
[3]; count n/N, Group 3, 40 mg/kg iv, day 5 post infection
  Development of swollen joints following infection: 3/20
[3]; count n/N, Group 3, 40 mg/kg iv, day 6 post infection
  Development of swollen joints following infection: 3/20
[3]; count n/N, Group 3, 40 mg/kg iv, day 7 post infection
  Development of swollen joints following infection: 3/20
[3]; count n/N, Group 4, 20 mg/kg iv, day 2 post infection
  Development of swollen joints following infection: 1/20
[3]; count n/N, Group 4, 20 mg/kg iv, day 3 post infection
  Development of swollen joints following infection: 1/20
[3]; count n/N, Group 4, 20 mg/kg iv, day 4 post infection
  Development of swollen joints following infection: 2/20
[3]; count n/N, Group 4, 20 mg/kg iv, day 5 post infection
  Development of swollen joints following infection: 1/16
[3]; count n/N, Group 4, 20 mg/kg iv, day 6 post infection
  Development of swollen joints following infection: 6/20
[3]; count n/N, Group 4, 20 mg/kg iv, day 7 post infection
  Development of swollen joints following infection: 4/12
[3]; count n/N, Group 5, 10 mg/kg iv, day 2 post infection
  Development of swollen joints following infection: 1/20
[3]; count n/N, Group 5, 10 mg/kg iv, day 3 post infection
  Development of swollen joints following infection: 1/20
[3]; count n/N, Group 5, 10 mg/kg iv, day 4 post infection
  Development of swollen joints following infection: 2/20
[3]; count n/N, Group 5, 10 mg/kg iv, day 5 post infection
  Development of swollen joints following infection: 2/20
[3]; count n/N, Group 5, 10 mg/kg iv, day 6 post infection
  Development of swollen joints following infection: 5/16
[3]; count n/N, Group 5, 10 mg/kg iv, day 7 post infection
  Development of swollen joints following infection: 4/12
[3]; figure in parentheses, Group 2, 60 mg/kg iv, day 2 post infection
  Development of swollen joints following infection: 0
[3]; figure in parentheses, Group 2, 60 mg/kg iv, day 3 post infection
  Development of swollen joints following infection: 0
[3]; figure in parentheses, Group 2, 60 mg/kg iv, day 4 post infection
  Development of swollen joints following infection: 0
[3]; figure in parentheses, Group 2, 60 mg/kg iv, day 5 post infection
  Development of swollen joints following infection: 0
[3]; figure in parentheses, Group 2, 60 mg/kg iv, day 6 post infection
  Development of swollen joints following infection: 0
[3]; figure in parentheses, Group 2, 60 mg/kg iv, day 7 post infection
  Development of swollen joints following infection: 0
[3]; figure in parentheses, Group 3, 40 mg/kg iv, day 2 post infection
  Development of swollen joints following infection: 0
[3]; figure in parentheses, Group 3, 40 mg/kg iv, day 3 post infection
  Development of swollen joints following infection: 0
[3]; figure in parentheses, Group 3, 40 mg/kg iv, day 4 post infection
  Development of swollen joints following infection: 10
[3]; figure in parentheses, Group 3, 40 mg/kg iv, day 5 post infection
  Development of swollen joints following infection: 15
[3]; figure in parentheses, Group 3, 40 mg/kg iv, day 6 post infection
  Development of swollen joints following infection: 15
[3]; figure in parentheses, Group 3, 40 mg/kg iv, day 7 post infection
  Development of swollen joints following infection: 15
[3]; figure in parentheses, Group 4, 20 mg/kg iv, day 2 post infection
  Development of swollen joints following infection: 5
[3]; figure in parentheses, Group 4, 20 mg/kg iv, day 3 post infection
  Development of swollen joints following infection: 5
[3]; figure in parentheses, Group 4, 20 mg/kg iv, day 4 post infection
  Development of swollen joints following infection: 10
[3]; figure in parentheses, Group 4, 20 mg/kg iv, day 5 post infection
  Development of swollen joints following infection: 6.3
[3]; figure in parentheses, Group 4, 20 mg/kg iv, day 6 post infection
  Development of swollen joints following infection: 30
[3]; figure in parentheses, Group 4, 20 mg/kg iv, day 7 post infection
  Development of swollen joints following infection: 33
[3]; figure in parentheses, Group 5, 10 mg/kg iv, day 2 post infection
  Development of swollen joints following infection: 5
[3]; figure in parentheses, Group 5, 10 mg/kg iv, day 3 post infection
  Development of swollen joints following infection: 5
[3]; figure in parentheses, Group 5, 10 mg/kg iv, day 4 post infection
  Development of swollen joints following infection: 10
[3]; figure in parentheses, Group 5, 10 mg/kg iv, day 5 post infection
  Development of swollen joints following infection: 10
[3]; figure in parentheses, Group 5, 10 mg/kg iv, day 6 post infection
  Development of swollen joints following infection: 31
[3]; figure in parentheses, Group 5, 10 mg/kg iv, day 7 post infection
  Development of swollen joints following infection: 33
